Measured values as given in US11124550B2, “Proteinaceous molecules and methods of use” (priority 2015, dated 2021).

Details: after 72 hours, 37° C., 1 μM

CC[C@H](C)[C@@H]1NC(=O)[C@H](CCCNC(=N)N)NC(=O)[C@H](CC(=O)O)NC(=O)[C@H](CCSC)NC(=O)[C@H](CCCNC(=N)N)NC(=O)CNC(=O)CNC(=O)[C@H](Cc2ccccc2)NC(=O)[C@@H](NC(=O)[C@H](CO)NC(=O)[C@H](CO)NC(=O)[C@H](CCCNC(=N)N)NC(=O)[C@H](CCCNC(=N)N)NC(=O)[C@H](CC(C)C)NC(=O)[C@@H](N)CO)CSSC[C@@H](C(=O)N[C@@H](CC(N)=O)C(=O)N[C@@H](CO)C(=O)N[C@@H](Cc2ccccc2)C(=O)N[C@@H](CCCNC(=N)N)C(=O)N[C@@H](Cc2ccc(O)cc2)C(=O)O)NC(=O)CNC(=O)[C@H](CC(C)C)NC(=O)CNC(=O)[C@H](CO)NC(=O)[C@H](CCC(N)=O)NC(=O)[C@H](C)NC(=O)CNC1=O [hANP]
peptide remaining in human CSF: no detectable
